Reference: PubChem BioAssay AID1963836 (Molecular Pharmacology Branch, DTP, NCI, 2024)

Test system: 857933-349-R-J2-PDC complex spheroid viability
Assay: Anticancer human tumor 857933-349-R-J2-PDC patient-derived colon adenocarcinoma cell line growth inhibition [POLQ]
Conditions: for IC50: curve of first compound; for viability, T/C: stronger effect = lower value
In short: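 Patient-derived tumour cells were co-cultured with HUVEC and mesenchymal stem cells as multicellular spheroids at 37 °C. They were treated with POLQ inhibitors (novobiocin, ART-558, RP6685) alone or combined with other agents. Top concentrations were at or near clinical Cmax (otherwise 10 microM; SN-38 at 1 microM), decreasing in half-log steps.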

[1] = second compound 0.0316 µM, first compound 0.0316 µM
[2] = second compound 0.0316 µM, first compound 0.1 µM
[3] = second compound 0.0316 µM, first compound 0.316 µM
[4] = second compound 0.0316 µM, first compound 1 µM
[5] = second compound 0.0316 µM, first compound 3.16 µM
[6] = second compound 0.0316 µM, first compound 10 µM
[7] = second compound 0.1 µM, first compound 0.0316 µM
[8] = second compound 0.1 µM, first compound 0.1 µM
[9] = second compound 0.1 µM, first compound 0.316 µM
[10] = second compound 0.1 µM, first compound 1 µM
[11] = second compound 0.1 µM, first compound 3.16 µM
[12] = second compound 0.1 µM, first compound 10 µM
[13] = second compound 0.316 µM, first compound 0.0316 µM
[14] = second compound 0.316 µM, first compound 0.1 µM
[15] = second compound 0.316 µM, first compound 0.316 µM
[16] = second compound 0.316 µM, first compound 1 µM
[17] = second compound 0.316 µM, first compound 3.16 µM
[18] = second compound 0.316 µM, first compound 10 µM
[19] = second compound 1 µM, first compound 0.0316 µM
[20] = second compound 1 µM, first compound 0.1 µM
[21] = second compound 1 µM, first compound 0.316 µM
[22] = second compound 1 µM, first compound 1 µM
[23] = second compound 1 µM, first compound 3.16 µM
[24] = second compound 1 µM, first compound 10 µM
[25] = second compound 3.16 µM, first compound 0.0316 µM
[26] = second compound 3.16 µM, first compound 0.1 µM
[27] = second compound 3.16 µM, first compound 0.316 µM
[28] = second compound 3.16 µM, first compound 1 µM
[29] = second compound 3.16 µM, first compound 3.16 µM
[30] = second compound 3.16 µM, first compound 10 µM
[31] = second compound 10 µM, first compound 0.0316 µM
[32] = second compound 10 µM, first compound 0.1 µM
[33] = second compound 10 µM, first compound 0.316 µM
[34] = second compound 10 µM, first compound 1 µM
[35] = second compound 10 µM, first compound 3.16 µM
[36] = second compound 10 µM, first compound 10 µM
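Further: spheroids exposed to compounds for seven days before readout.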

COc1cc(C2c3cc4c(cc3C(OC3OC5COC(C)OC5C(O)C3O)C3COC(=O)C23)OCO4)cc(OC)c1O (centres undefined) + COC1C(OC(N)=O)C(O)C(Oc2ccc3c(O)c(NC(=O)c4ccc(O)c(CC=C(C)C)c4)c(=O)oc3c2C)OC1(C)C
IC50 (second compound 0.0316 µM): 352 nM | IC50 (second compound 0.1 µM): 399 nM | IC50 (second compound 0.316 µM): 488 nM | IC50 (second compound 1 µM): 453 nM | IC50 (second compound 3.16 µM): 358 nM | IC50 (second compound 10 µM): 386 nM | viability, T/C [1]: 80.7% | viability, T/C [2]: 88.3% | viability, T/C [3]: 51.3% | viability, T/C [4]: 46.2% | viability, T/C [5]: 36.1% | viability, T/C [6]: 28.7% | viability, T/C [7]: 71.1% | viability, T/C [8]: 84.7% | viability, T/C [9]: 53.5% | viability, T/C [10]: 42.3% | viability, T/C [11]: 35.5% | viability, T/C [12]: 30.4% | viability, T/C [13]: 74.1% | viability, T/C [14]: 79.3% | viability, T/C [15]: 54.6% | viability, T/C [16]: 41% | viability, T/C [17]: 34.7% | viability, T/C [18]: 29.9% | viability, T/C [19]: 81.9% | viability, T/C [20]: 71.3% | viability, T/C [21]: 54.6% | viability, T/C [22]: 39.6% | viability, T/C [23]: 34.2% | viability, T/C [24]: 29.9% | viability, T/C [25]: 88.2% | viability, T/C [26]: 99% | viability, T/C [27]: 52.1% | viability, T/C [28]: 37.5% | viability, T/C [29]: 30.3% | viability, T/C [30]: 30.1% | viability, T/C [31]: 94.5% | viability, T/C [32]: 65.7% | viability, T/C [33]: 54.6% | viability, T/C [34]: 39.8% | viability, T/C [35]: 37.6% | viability, T/C [36]: 32.1%

CCCS(=O)(=O)Nc1ccc(F)c(C(=O)c2c[nH]c3ncc(-c4ccc(Cl)cc4)cc23)c1F + COC1C(OC(N)=O)C(O)C(Oc2ccc3c(O)c(NC(=O)c4ccc(O)c(CC=C(C)C)c4)c(=O)oc3c2C)OC1(C)C
IC50 (second compound 0.0316 µM): 5650 nM | IC50 (second compound 0.1 µM): 6170 nM | IC50 (second compound 0.316 µM): 5040 nM | IC50 (second compound 1 µM): 5740 nM | IC50 (second compound 3.16 µM): 5750 nM | IC50 (second compound 10 µM): 6760 nM | viability, T/C [1]: 73.7% | viability, T/C [2]: 113% | viability, T/C [3]: 96.1% | viability, T/C [4]: 117% | viability, T/C [5]: 85% | viability, T/C [6]: 15.7% | viability, T/C [7]: 96.9% | viability, T/C [8]: 112% | viability, T/C [9]: 107% | viability, T/C [10]: 109% | viability, T/C [11]: 103% | viability, T/C [12]: 12.1% | viability, T/C [13]: 132% | viability, T/C [14]: 121% | viability, T/C [15]: 76.7% | viability, T/C [16]: 99.8% | viability, T/C [17]: 85% | viability, T/C [18]: 12.4% | viability, T/C [19]: 108% | viability, T/C [20]: 77.6% | viability, T/C [21]: 121% | viability, T/C [22]: 94.5% | viability, T/C [23]: 89.9% | viability, T/C [24]: 13.3% | viability, T/C [25]: 108% | viability, T/C [26]: 117% | viability, T/C [27]: 101% | viability, T/C [28]: 95.5% | viability, T/C [29]: 89.2% | viability, T/C [30]: 16.6% | viability, T/C [31]: 93.9% | viability, T/C [32]: 83.7% | viability, T/C [33]: 93.7% | viability, T/C [34]: 82.5% | viability, T/C [35]: 87.1% | viability, T/C [36]: 30.9%
